Source: paper PMC9495676, “Evaluation of the Antimicrobial Properties of a Natural Peptide from Vespa mandarinia Venom and Its Synthetic Analogues as a Possible Route to Defeat Drug-Resistant Microbes” (Biology, 2022)
No end group written: not given here.

How the values were obtained:
[1] = test system: MRSA (ATCC 12493); experiment: MIC/MBC broth dilution assay; assay type: cell-based, methicillin-resistant Staphylococcus aureus; conditions: 37 °C overnight, nine replicates from three independent experiments; for MIC: broth dilution, Mueller–Hinton broth, 5 × 10^5 CFU/mL, OD 550 nm; for MBC: sub-culture on MHA
Experimental: (§1) The minimal inhibitory concentration assay (MIC) and minimum bactericidal concentration assay (MBC) of the peptide were carried out using the broth dilution method. Seven microbes, including the Gram-positive bacteria, S. aureus (NCTC 6538), MRSA, (ATCC 12493) and Enterococcus faecalis (E. faecalis) (NCTC 12697); Gram-negative bacteria, E. coli (ATCC 8739), Klebsiella pneumoniae (K. pneumoniae) (ATCC 43816) and Pseudomonas aeruginosa (P. aeruginosa) (ATCC 9027); and a yeast, C. albicans (ATCC 10231), were used in these assays and incubated with peptide at 37 °C overnight. The growth culture media were Yeast Extract Peptone Dextrose for C. albicans and Mueller–Hinton broth for others. The concentration of microbes was detected by measuring OD values through the use of a UV spectrophotometer set to 550 nm. C. albicans assays required 10^6 colony forming units (CFU)/mL, while others were incubated with 10^8 CFU/mL and verified by viable cell counts. All of the inocula were diluted to final concentrations of 5 × 10^5 CFU/mL. The concentration of peptides ranged from 1 µM to 512 µM (C = 1, 2, 4, 8, 16, 32, 64, 128, 256, 512 µM). Two mg/mL of amphotericin B for C. albicans and 2 mg/mL norfloxacin for others were applied as positive controls, and 1% of dimethyl sulphoxide (DMSO) was applied as a vehicle control. The 96-well plates were analysed at 550 nm using an ELISA plate reader (Biolise BioTek EL808, Winooski, VT, USA).
(§2) After analysing the growth situation of microbial cultures from each concentration, 10 µL of the inhibited cultures (the peptide concentration ranges from MIC to maximum concentration) were selected to sub-culture onto the Mueller–Hinton agar (MHA) plates. The plates were incubated overnight at 37 °C. After incubation, the lowest concentration on the MHA plates with no bacterial growth was regarded as the MBC value.

[2] = test system: S. aureus biofilm; experiment: Antibiofilm assay (MBIC/MBEC), crystal violet; assay type: cell-based, Staphylococcus aureus; conditions: TSB, 595 nm, nine replicates from three independent experiments; for MBIC: S. aureus biofilm inhibition; for MBEC: S. aureus preformed 24 h biofilm, peptide 24 h at 37 °C
Experimental: (§3) The minimal biofilm inhibitory concentration assay (MBIC) and minimal biofilm eradication concentration assay (MBEC) were performed on each of the peptides using Gram-positive bacteria cultured in Tryptic Soy Broth (TSB, Sigma-Aldrich, St. Louis, MO, USA) and Gram-negative bacteria cultured in Luria-Bertani broth (LB, Thermo Fisher Scientific, Carlsbad, CA, USA). The seeding concentration in 96-well plates of bacterial suspension was the same as for the anti-bacterial assay, and a UV spectrophotometer set to 550 nm was used to detect OD values. Melittin was used as a positive control. For MBIC, peptide solution was mixed with bacterial suspension at first to test if it could inhibit the growth of biofilm. However, for minimal biofilm eradication (MBEC) assays, biofilm was formed in 96-well plates at 37 °C for 24 h after seeding bacteria; afterwards, it was washed by sterile PBS twice. Peptide solutions, prepared with culture broth, were added to […] the biofilms by incubating at 37 °C for 24 h. Both plates were washed by PBS twice and stained by 125 µL 0.1% crystal violet solution (Sigma-Aldrich, Gillingham, UK). The stain was dissolved in 150 µL 30% acetic acid (Sigma-Aldrich, Gillingham, UK). The absorbance values of 100 µL solution from each well, were analysed by using a Synergy HT plate reader (Biotech, Minneapolis, MN, USA) set at 595 nm.

[3] = test system: K. pneumoniae (ATCC 43816); experiment: MIC/MBC broth dilution assay; assay type: cell-based, Klebsiella pneumoniae; conditions: 37 °C overnight, nine replicates from three independent experiments; for MIC: broth dilution, Mueller–Hinton broth, 5 × 10^5 CFU/mL, OD 550 nm
Experimental: as §1, §2

[4] = test system: horse erythrocytes; experiment: Haemolysis assay; assay type: cell-based; conditions: 37 °C, 2 h; for HC50 (peptide concentration that caused 50% lysis of horse red blood cells): 4% (v/v) defibrinated horse erythrocytes, 550 nm, normalised to 1% Triton X-100, calculated from the haemolysis curve
Experimental: Defibrinated horse erythrocytes (TCS Biosciences Ltd., Buckingham, UK) were used in the haemolysis assay. Peptides, from 1 μM to 512 μM, were tested with a 4% (v/v) erythrocyte suspension and were incubated at 37 °C for 2 h, while 1% Triton X-100 (Sigma-Aldrich, St. Louis, MO, USA) was acted as a positive control and phosphate-buffered saline (PBS) was used as a negative control. The sample supernatants were analysed at 550 nm on an ELISA plate reader (Biolise BioTek EL808, Winooski, VT, USA).

[5] = test system: E. coli (ATCC 8739); experiment: MIC/MBC broth dilution assay; assay type: cell-based, Escherichia coli; conditions: 37 °C overnight, nine replicates from three independent experiments; for MIC: broth dilution, Mueller–Hinton broth, 5 × 10^5 CFU/mL, OD 550 nm; for MBC: sub-culture on MHA
Experimental: as §1, §2

[6] = test system: P. aeruginosa biofilm; experiment: Antibiofilm assay (MBIC/MBEC), crystal violet; assay type: cell-based, Pseudomonas aeruginosa; conditions: LB, 595 nm, nine replicates from three independent experiments; for MBIC: P. aeruginosa biofilm inhibition; for MBEC: P. aeruginosa preformed 24 h biofilm, peptide 24 h at 37 °C
Experimental: as §3

[7] = test system: E. faecalis (NCTC 12697); experiment: MIC/MBC broth dilution assay; assay type: cell-based, Enterococcus faecalis; conditions: 37 °C overnight, nine replicates from three independent experiments; for MIC: broth dilution, Mueller–Hinton broth, 5 × 10^5 CFU/mL, OD 550 nm; for MBC: sub-culture on MHA
Experimental: as §1, §2

[8] = test system: E. coli biofilm; experiment: Antibiofilm assay (MBIC/MBEC), crystal violet; assay type: cell-based, Escherichia coli; conditions: LB, 595 nm, nine replicates from three independent experiments; for MBIC: E. coli biofilm inhibition; for MBEC: E. coli preformed 24 h biofilm, peptide 24 h at 37 °C
Experimental: as §3

[9] = test system: E. faecalis biofilm; experiment: Antibiofilm assay (MBIC/MBEC), crystal violet; assay type: cell-based, Enterococcus faecalis; conditions: TSB, 595 nm, nine replicates from three independent experiments; for MBIC: E. faecalis biofilm inhibition; for MBEC: E. faecalis preformed 24 h biofilm, peptide 24 h at 37 °C
Experimental: as §3

[10] = test system: S. aureus (NCTC 6538); experiment: MIC/MBC broth dilution assay; assay type: cell-based, Staphylococcus aureus; conditions: 37 °C overnight, nine replicates from three independent experiments; for MIC: broth dilution, Mueller–Hinton broth, 5 × 10^5 CFU/mL, OD 550 nm; for MBC: sub-culture of inhibited cultures on MHA
Experimental: as §1, §2

[11] = test system: C. albicans (ATCC 10231); experiment: MIC/MBC broth dilution assay; assay type: cell-based, Candida albicans; conditions: 37 °C overnight, nine replicates from three independent experiments; for MIC: broth dilution, Yeast Extract Peptone Dextrose, 5 × 10^5 CFU/mL, OD 550 nm; for MBC: sub-culture on agar plates
Experimental: as §1, §2

[12] = test system: MRSA biofilm; experiment: Antibiofilm assay (MBIC/MBEC), crystal violet; assay type: cell-based, methicillin-resistant Staphylococcus aureus; conditions: TSB, 595 nm, nine replicates from three independent experiments; for MBIC: MRSA biofilm inhibition; for MBEC: MRSA preformed 24 h biofilm, peptide 24 h at 37 °C
Experimental: as §3

[13] = test system: K. pneumoniae biofilm; experiment: Antibiofilm assay (MBIC/MBEC), crystal violet; assay type: cell-based, Klebsiella pneumoniae; conditions: LB, 595 nm, nine replicates from three independent experiments; for MBIC: K. pneumoniae biofilm inhibition; for MBEC: K. pneumoniae preformed 24 h biofilm, peptide 24 h at 37 °C
Experimental: as §3

[14] = test system: P. aeruginosa (ATCC 9027); experiment: MIC/MBC broth dilution assay; assay type: cell-based, Pseudomonas aeruginosa; conditions: 37 °C overnight, nine replicates from three independent experiments; for MIC: broth dilution, Mueller–Hinton broth, 5 × 10^5 CFU/mL, OD 550 nm; for MBC: sub-culture on MHA
Experimental: as §1, §2

[15] = test system: Gram-positive bacteria; experiment: MIC broth dilution assay, summary over Gram-positive bacteria; assay type: cell-based; conditions: range over S. aureus, MRSA, E. faecalis
Experimental: as §1, with “Two mg/mL of amphotericin B for C. albicans and 2 mg/mL norfloxacin for others were applied as positive controls, and 1% of dimethyl sulphoxide (DMSO) was applied as a vehicle control.” left out, “USA). […]” for “USA).”

Compound | MIC [1] [µM] | MBC [1] | MBIC [2] [µM] | MBEC [2] [µM] | MIC [3] [µM] | HC50 (peptide concentration that caused 50% lysis of horse red blood cells) [4] [µM] | MIC [5] [µM] | MBIC [6] | MBEC [6] | MIC [7] | MBIC [8] | MBEC [8] | MBIC [9] [µM] | MBEC [9] [µM] | MBC [10] | MBIC [12] [µM] | MBEC [12] [µM] | MBIC [13] | MBEC [13] | MIC [14] [µM] | other results
FLKIIGKLLSGLL-NH2 [VM-3K] | 1 | 2 µM | 2 | 32 | 32 | 11.2 | 8 | 32 µM | > 512 µM | 2/2 µM | 16 µM | > 512 µM | 4 | > 512 | 1 µM | 2 | 64 | 64 µM | > 512 µM | 16 | MBC ([3]; sub-culture on MHA): 32 µM; MBC [5]: 8 µM; MIC [10]: 1 µM; MIC [11]: 32 µM; MBC [11]: 32 µM; MBC [14]: 16 µM
FLYIIGKLLSGLL-NH2 [VM-3Y] |  | 2/2 µM | 2 | 128 | >512 | 211.2 | >512 | >512/>512 µM | >512/>512 µM | 4 µM | >512/>512 µM | >512/>512 µM | 64 | > 512 | 2/2 µM | 2 | 64 | >512/>512 µM | >512/>512 µM | >512 | MBC [7]: 4 µM; MIC [11]: >512 µM
FLWIIGKLLSGLL-NH2 [VM-3W] | 2 | 2 µM | 4 | 128 | >512 | 9.682 | >512 | >512/>512 µM | >512/>512 µM | 4 µM | >512/>512 µM | >512/>512 µM | 16 | > 512 | 1 µM | 4 | 128 | >512/>512 µM | >512/>512 µM | >512 | MBC [7]: 4 µM; MIC [10]: 1 µM; MIC [11]: >512 µM
CC[C@H](C)[C@H](NC(=O)CN)C(=O)NCC(=O)N[C@@H](C)C(=O)N[C@H](C(=O)N[C@@H](CC(C)C)C(=O)N[C@@H](CCCCN)C(=O)N[C@H](C(=O)N[C@@H](CC(C)C)C(=O)N[C@H](C(=O)N[C@H](C(=O)NCC(=O)N[C@@H](CC(C)C)C(=O)N1CCC[C@H]1C(=O)N[C@@H](C)C(=O)N[C@@H](CC(C)C)C(=O)N[C@H](C(=O)N[C@@H](CO)C(=O)N[C@@H](Cc1c[nH]c2ccccc12)C(=O)N[C@H](C(=O)N[C@@H](CCCCN)C(=O)N[C@@H](CCCNC(=N)N)C(=O)N[C@@H](CCCCN)C(=O)N[C@@H](CCCNC(=N)N)C(=O)N[C@@H](CCC(N)=O)C(=O)N[C@@H](CCC(N)=O)C(N)=O)[C@@H](C)CC)[C@@H](C)CC)[C@@H](C)O)[C@@H](C)O)C(C)C)C(C)C [Melittin, reference compound] |  |  | 4 |  |  |  |  | 64 µM |  |  | 32 µM |  | 8 |  |  | 8 |  | 128 µM |  |  | 
FLGIIGKLLSGLL-NH2 [VM-3G] | 2 | 2 µM | 2 | 32 | >512 | 9.686 | 64 | >512/>512 µM | >512/>512 µM | 4 µM | 256 µM | > 512 µM | 8 | > 512 | 1 µM | 2 | 32 | >512/>512 µM | >512/>512 µM | 128 | MBC [5]: 128 µM; MBC [7]: 4 µM; MIC [10]: 1 µM; MIC [11]: >512 µM; MBC [14]: 128 µM
FLPIIGKLLSGLL-NH2 [VM] | 4 | 4 µM | 8 | 64 | >512 | 44.43 | 256 | >512/>512 µM | >512/>512 µM | 16 µM | >512/>512 µM | >512/>512 µM |  |  | 4 µM | 8 | 64 | >512/>512 µM | >512/>512 µM | >512 | maximum concentration that caused less than 10% haemolysis ([4]; 4% horse erythrocytes): 16 µM; MBC [5]: 256 µM; MBC [7]: 16 µM; MICs against Gram-positive bacteria [15]: 4 to 16 µM; MIC [10]: 4 µM; MBC [11]: 32/32 µM
